Laboratory results: ChEMBL document CHEMBL1201862, “PubChem BioAssay data set” (2004)
The source made the active and inactive calls.

What was measured:
[1] = decrease of insulin promoter-GFP reporter – imaging, high-content screening, mouse beta cells (AID 1628); type: functional; details: MIN6
[2] = MIN6 cell viability loss – mouse insulinoma, cytotoxicity control, dose response (AID 2122); type: functional;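 also: confirmatory high-throughput counterscreen run to flag cytotoxic compounds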
[3] = HEK-293T cell viability reduction – luminescence, B-cell screen hits, cytotoxicity control for BCR NF-kB inhibitor project, dose response (AID 489021); type: functional, cell-based;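 also: HEK-293T cells carrying an NF-kB luciferase reporter; cells exposed to compound for about 14 hours before viability readout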
SUMO-activating enzyme [4] = molecular target: T1, SUMO-activating enzyme (Homo sapiens, UniProt Q9UBT2); test: blockers of SAE1/SAE2–UBC9 SUMO transfer – biochemical, HTRF, uHTS, primary screen (AID 2006); type: protein-complex assay
T1 sequence (Q9UBE0 whole entry): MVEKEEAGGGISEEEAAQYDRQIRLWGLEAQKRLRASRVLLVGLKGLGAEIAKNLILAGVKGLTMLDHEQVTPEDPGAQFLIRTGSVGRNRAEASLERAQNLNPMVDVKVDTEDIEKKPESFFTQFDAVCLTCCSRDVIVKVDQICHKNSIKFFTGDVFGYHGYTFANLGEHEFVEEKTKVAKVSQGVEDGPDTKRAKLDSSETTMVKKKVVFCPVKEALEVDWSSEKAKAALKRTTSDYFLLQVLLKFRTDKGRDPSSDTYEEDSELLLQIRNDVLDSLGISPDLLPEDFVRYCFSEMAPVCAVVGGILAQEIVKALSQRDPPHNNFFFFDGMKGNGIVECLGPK
T1 sequence (Q9UBT2 whole entry): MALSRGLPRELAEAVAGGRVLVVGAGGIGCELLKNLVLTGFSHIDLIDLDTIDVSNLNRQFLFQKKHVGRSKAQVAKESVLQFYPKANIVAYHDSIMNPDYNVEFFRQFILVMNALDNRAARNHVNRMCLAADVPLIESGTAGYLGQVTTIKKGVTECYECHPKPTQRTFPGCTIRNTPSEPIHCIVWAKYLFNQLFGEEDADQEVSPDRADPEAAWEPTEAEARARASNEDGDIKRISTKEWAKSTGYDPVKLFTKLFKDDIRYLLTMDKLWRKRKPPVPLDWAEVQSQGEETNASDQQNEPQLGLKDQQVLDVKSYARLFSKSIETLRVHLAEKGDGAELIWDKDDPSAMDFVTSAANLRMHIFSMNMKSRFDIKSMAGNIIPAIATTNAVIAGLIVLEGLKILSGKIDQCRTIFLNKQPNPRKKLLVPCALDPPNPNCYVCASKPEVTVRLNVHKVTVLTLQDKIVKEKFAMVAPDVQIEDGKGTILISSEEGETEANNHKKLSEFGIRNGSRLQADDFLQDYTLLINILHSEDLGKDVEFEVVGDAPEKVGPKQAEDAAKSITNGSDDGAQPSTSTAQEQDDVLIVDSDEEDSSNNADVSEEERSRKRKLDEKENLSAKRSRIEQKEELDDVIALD

[5] = molecular target: Heat shock protein HSP 90-alpha (Homo sapiens, UniProt P07900); type: functional, organism-based
[6] = molecular target: T2, High affinity choline transporter 1 (Homo sapiens, UniProt Q9GZV3); test: human choline transporter blockers, potency – cell-based, 5-point CRC, membrane potential dye, dose response (AID 504840); type: functional
T2 sequence (Q9GZV3 whole entry): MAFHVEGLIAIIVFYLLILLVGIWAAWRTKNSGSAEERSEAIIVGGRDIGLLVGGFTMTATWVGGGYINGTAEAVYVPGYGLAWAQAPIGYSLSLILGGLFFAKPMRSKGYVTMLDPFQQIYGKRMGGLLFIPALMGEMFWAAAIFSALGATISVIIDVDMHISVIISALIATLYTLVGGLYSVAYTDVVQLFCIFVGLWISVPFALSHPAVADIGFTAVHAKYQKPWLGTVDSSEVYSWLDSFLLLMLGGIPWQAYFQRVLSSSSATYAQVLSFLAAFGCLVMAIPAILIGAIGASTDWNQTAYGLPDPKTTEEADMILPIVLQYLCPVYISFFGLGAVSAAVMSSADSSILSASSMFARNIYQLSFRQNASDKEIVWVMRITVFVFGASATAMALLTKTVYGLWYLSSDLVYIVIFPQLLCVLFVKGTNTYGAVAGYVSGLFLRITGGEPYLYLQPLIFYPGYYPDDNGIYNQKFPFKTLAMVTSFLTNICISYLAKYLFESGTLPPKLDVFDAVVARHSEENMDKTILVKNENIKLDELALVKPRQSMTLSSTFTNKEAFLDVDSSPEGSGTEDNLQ

Protein RecA = molecular target: T3, Protein RecA (Mycobacterium tuberculosis, UniProt P9WHJ3); test: Fluorescence Cell-Free Homogeneous Dose Retest to Identify Inhibitors of RecA-Intein Splicing Activity. [Related pubchem assays (depositor defined):AID2097, AID2223, AID489010, AID492950]; type: functional
T3 sequence (P9WHJ3 whole entry): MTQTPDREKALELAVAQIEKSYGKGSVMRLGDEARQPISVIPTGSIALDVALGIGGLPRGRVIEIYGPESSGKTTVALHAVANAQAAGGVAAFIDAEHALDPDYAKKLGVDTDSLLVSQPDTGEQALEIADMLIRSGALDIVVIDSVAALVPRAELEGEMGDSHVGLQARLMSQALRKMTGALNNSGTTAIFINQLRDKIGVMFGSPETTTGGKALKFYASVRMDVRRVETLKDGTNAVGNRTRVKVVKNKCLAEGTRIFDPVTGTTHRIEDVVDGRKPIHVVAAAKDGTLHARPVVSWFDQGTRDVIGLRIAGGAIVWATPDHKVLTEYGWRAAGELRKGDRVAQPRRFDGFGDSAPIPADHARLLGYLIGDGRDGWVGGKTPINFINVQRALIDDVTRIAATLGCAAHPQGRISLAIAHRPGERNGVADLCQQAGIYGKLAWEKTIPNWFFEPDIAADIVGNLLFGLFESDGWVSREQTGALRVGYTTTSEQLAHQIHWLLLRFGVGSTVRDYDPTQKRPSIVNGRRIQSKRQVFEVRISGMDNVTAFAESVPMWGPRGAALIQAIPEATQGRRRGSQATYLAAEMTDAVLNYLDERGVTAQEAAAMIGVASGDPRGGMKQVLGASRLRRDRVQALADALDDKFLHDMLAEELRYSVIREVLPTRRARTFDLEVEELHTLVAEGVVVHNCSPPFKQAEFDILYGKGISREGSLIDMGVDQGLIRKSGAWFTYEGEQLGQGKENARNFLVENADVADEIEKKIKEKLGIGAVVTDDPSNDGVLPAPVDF

[7] = blockade of melanocortin 4 receptor signaling – cell-based, plate reader, cherry pick, counter-screen for LGR2 antagonist project, dose response (AID 743444); type: functional;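 also: transfected HEK 293 cells stimulated with alpha-MSH peptide; potency of inhibitors of the alpha-MSH evoked signal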
SUMO-activating enzyme [8] = molecular target: T1, SUMO-activating enzyme; test: blockers of UBC9-mediated SUMO conjugation – biochemical, AlphaScreen, SUMOylation inhibitor project, confirmation (AID 2018); type: functional
INS1 = test: INS-1E survival protection against cytokine death – cell-based, luminescence, retest, dose response (AID 449756); type: functional; details: Rattus norvegicus;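 also: cell death triggered by IL-1 beta plus TNF-alpha plus IFN-gamma mixture; protective hits raise ATP signal compared with cytokine alone wells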
[9] = toxicity toward HepG2 liver cells – cell-based, plate reader, cherry-pick, antagonist series, cytotoxicity control, dose response (AID 743416); type: functional
[10] = viability loss in HEK293 cells – cell-based, plate reader, cherry-picked samples, cytotoxicity control, dose response (AID 743446); type: functional
[11] = blockers of bursicon-stimulated LGR2 cAMP reporter – cell-based, HEK293, CRE-luciferase reporter, cherry pick, set 2, dose response (AID 743343); type: functional;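 also: transfected cells were stimulated with diluted bursicon conditioned medium after compound addition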
[12] = molecular target: T4, Replicative DNA helicase DnaB (Mycobacterium tuberculosis, UniProt P9WMR3); test: DnaB intein splicing inhibitors, dose response, biochemical, cell-free fluorescence (AID 449749); type: functional
T4 sequence (P9WMR3 whole entry): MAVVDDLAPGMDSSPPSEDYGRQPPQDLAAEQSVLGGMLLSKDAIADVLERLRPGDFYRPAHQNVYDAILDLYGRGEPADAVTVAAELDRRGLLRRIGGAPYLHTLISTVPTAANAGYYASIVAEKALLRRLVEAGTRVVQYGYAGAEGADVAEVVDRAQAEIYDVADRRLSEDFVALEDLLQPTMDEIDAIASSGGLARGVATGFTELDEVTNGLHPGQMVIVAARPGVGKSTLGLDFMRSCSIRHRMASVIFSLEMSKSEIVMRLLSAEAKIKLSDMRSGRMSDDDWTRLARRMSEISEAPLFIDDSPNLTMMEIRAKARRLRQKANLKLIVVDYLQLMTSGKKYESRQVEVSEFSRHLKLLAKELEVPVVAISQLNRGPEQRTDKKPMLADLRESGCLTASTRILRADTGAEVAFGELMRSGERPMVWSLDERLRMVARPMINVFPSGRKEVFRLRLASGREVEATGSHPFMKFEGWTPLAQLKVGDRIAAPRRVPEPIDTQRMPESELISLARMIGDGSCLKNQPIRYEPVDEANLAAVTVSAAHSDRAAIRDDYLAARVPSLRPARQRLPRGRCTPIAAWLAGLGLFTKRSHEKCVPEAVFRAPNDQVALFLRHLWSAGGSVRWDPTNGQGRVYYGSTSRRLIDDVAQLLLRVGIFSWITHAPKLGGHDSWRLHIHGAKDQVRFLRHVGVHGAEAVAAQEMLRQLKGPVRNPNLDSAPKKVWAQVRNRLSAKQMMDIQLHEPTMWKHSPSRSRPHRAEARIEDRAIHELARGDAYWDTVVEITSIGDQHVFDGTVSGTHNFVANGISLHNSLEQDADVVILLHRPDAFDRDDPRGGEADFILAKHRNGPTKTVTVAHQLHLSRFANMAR

[13] = A549 cell cytotoxicity, dose response, cytotoxicity control, plate reader, cherry-pick, antagonist series (AID 743412); type: functional, cell-based

O=C(Nc1nc(-c2ccccc2)cs1)c1ccccc1NS(=O)(=O)c1ccc(F)cc1
active: IC50 [1] 3.02 µM | IC50 [2] 2.18 µM | IC50 [3] 14.8 µM | IC50 (SUMO-activating enzyme [4]) 18.4 µM | AC50 [5] 2.91 µM | IC50 [6] 13.8 µM | EC50 (Protein RecA) 8.85 µM | AC50 [7] 6.01 µM | IC50 (SUMO-activating enzyme [8]) 7.97 µM | AC50 (INS1) 3.41 µM | AC50 [9] 11.2 µM | AC50 [10] 3.39 µM | AC50 [11] 28.6 µM | AC50 [12] 2.17 µM | AC50 [13] 14.6 µM
